Assay results: PMC8804275 (IBRO Neuroscience Reports, 2022)

Legend:
hCB1R [1] = biological target: T1, hCB1R (Homo sapiens, UniProt P21554); experiment: HitHunter cAMP assay, inhibition of forskolin-stimulated cAMP; assay type: cell-based; settings: 10 µM FSK, 90 min, 37 °C; agonism mode without CP55,940; allosteric ago-PAM
hCB1R [2] = biological target: T1, hCB1R; experiment: PathHunter βarrestin2 recruitment assay; assay type: cell-based; settings: 90 min, 37 °C; agonism mode without CP55,940; allosteric ago-PAM

T1 sequence (P21554 whole entry): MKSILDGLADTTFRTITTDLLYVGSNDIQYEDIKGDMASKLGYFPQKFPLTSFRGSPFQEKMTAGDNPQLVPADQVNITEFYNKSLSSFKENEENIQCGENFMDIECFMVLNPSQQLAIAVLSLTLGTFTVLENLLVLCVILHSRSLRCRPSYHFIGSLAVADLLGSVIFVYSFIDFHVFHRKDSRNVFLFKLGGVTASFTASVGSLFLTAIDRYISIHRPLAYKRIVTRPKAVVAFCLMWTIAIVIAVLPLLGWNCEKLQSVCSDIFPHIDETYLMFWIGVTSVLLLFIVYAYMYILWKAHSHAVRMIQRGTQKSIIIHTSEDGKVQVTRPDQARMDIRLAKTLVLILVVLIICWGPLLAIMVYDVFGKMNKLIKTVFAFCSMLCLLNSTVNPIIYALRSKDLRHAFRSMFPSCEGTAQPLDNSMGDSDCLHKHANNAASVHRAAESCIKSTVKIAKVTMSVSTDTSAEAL

Row | Molecule | EC50 (hCB1R [1]) [µM] | EC50 (hCB1R [2]) [µM]
1 | GAT591 | 0.0041 | 1.3
2 | O=[N+]([O-])CC(c1ccccc1F)c1c(-c2cccc(F)c2)[nH]c2c(F)cccc12 (stereo not shown) [GAT593] | 0.045 | > 10
